Data published in patent US20240138411A1, “METHOD OF […] OF SUGARCANE” (CORTEVA AGRISCIENCE LLC, priority 2021, published 2024).

Tested on: sugarcane
Assay: Sugarcane flowering inhibition field trials, floral induction rated on UFSCar scale
Format: in vivo
Details: 475 g ai/ha
Protocol: In order to explore the activity of florpyrauxifen as flowering inhibitor in sugarcane, field studies were carried out. Florpyrauxifen-benzyl was tested at rates from 2 to 20 grams active ingredient per hectare (g ai/ha) and compared to Ethrel® 720 (Bayer), the standard treatment. The flowering inhibition effect was assessed by checking the floral induction in sugarcane through the percentage scale recommended by UFSCar (Federal University of Sao Carlos, Sao Paulo, Brazil).
Four trials were carried out in sugarcane where florpyrauxifen-benzyl (Rinskor®), applied at a rate of 2 to 20 g ai/ha, was compared to ethephon (Ethrel® 720) applied at a rate of 475 g ai/ha. Control plots of untreated sugarcane were also evaluated. Rinskor® and Ethrel® 720 were diluted in water and a single application for each study (backpack sprayer) was performed delivering 50 L of spray solution per ha at the reproductive stage of sugarcane and at a maximum 150 days before harvest. The activity of florpyrauxifen-benzyl as a flowering inhibitor was measured via assessments (Scale of flowering inhibition—see chart 1) performed at 0, 14, 30, 45, 60, 75, 90, 120, 150 days after application, or up to harvest time. The assessments were measured in sugarcane stems, rating the flowering induction according to the UFSCar scale shown below. Significance of treatment effect was evaluated with F-approximate test (α=0.1) and least square means from different treatments were compared with Tukey's test.

O=P(O)(O)CCCl [ETHREL720, 2-chloroethylphosphonic acid]
% Referring to Scale (Table 1, 75 DAA): 12.4%
Frequency 1/1 (0%) (Table 1, 75 DAA): 17.5%
Frequency 2/1 (15%) (Table 1, 75 DAA): 82.5%
Frequency 3/1 (30%) (Table 1, 75 DAA): 0.0%
Frequency 4/1 (50%) (Table 1, 75 DAA): 0.0%
Frequency 4/2 (80%) (Table 1, 75 DAA): 0.0%
Frequency 4/3 (90%) (Table 1, 75 DAA): 0.0%
Frequency 4/4 (100%) (Table 1, 75 DAA): 0.0%
% Referring to Scale (Table 1, 90 DAA): 13.1%
Frequency 1/1 (0%) (Table 1, 90 DAA): 20.0%
Frequency 2/1 (15%) (Table 1, 90 DAA): 72.5%
Frequency 3/1 (30%) (Table 1, 90 DAA): 7.5%
Frequency 4/1 (50%) (Table 1, 90 DAA): 0.0%
Frequency 4/2 (80%) (Table 1, 90 DAA): 0.0%
Frequency 4/3 (90%) (Table 1, 90 DAA): 0.0%
Frequency 4/4 (100%) (Table 1, 90 DAA): 0.0%
% Referring to Scale (Table 1, 120 DAA): 18.1%
Frequency 1/1 (0%) (Table 1, 120 DAA): 0.0%
Frequency 2/1 (15%) (Table 1, 120 DAA): 87.5%
Frequency 3/1 (30%) (Table 1, 120 DAA): 10.0%
Frequency 4/1 (50%) (Table 1, 120 DAA): 0.0%
Frequency 4/2 (80%) (Table 1, 120 DAA): 2.5%
Frequency 4/3 (90%) (Table 1, 120 DAA): 0.0%
Frequency 4/4 (100%) (Table 1, 120 DAA): 0.0%
% Referring to Scale (Table 2, 75 DAA): 0.8%
Frequency 1/1 (0%) (Table 2, 75 DAA): 95.0%
Frequency 2/1 (15%) (Table 2, 75 DAA): 5.0%
Frequency 3/1 (30%) (Table 2, 75 DAA): 0.0%
Frequency 4/1 (50%) (Table 2, 75 DAA): 0.0%
Frequency 4/2 (80%) (Table 2, 75 DAA): 0.0%
Frequency 4/3 (90%) (Table 2, 75 DAA): 0.0%
Frequency 4/4 (100%) (Table 2, 75 DAA): 0.0%
% Referring to Scale (Table 2, 90 DAA): 51.8%
Frequency 1/1 (0%) (Table 2, 90 DAA): 0.0%
Frequency 2/1 (15%) (Table 2, 90 DAA): 0.0%
Frequency 3/1 (30%) (Table 2, 90 DAA): 25.0%
Frequency 4/1 (50%) (Table 2, 90 DAA): 52.5%
Frequency 4/2 (80%) (Table 2, 90 DAA): 22.5%
Frequency 4/3 (90%) (Table 2, 90 DAA): 0.0%
Frequency 4/4 (100%) (Table 2, 90 DAA): 0.0%
% Referring to Scale (Table 2, 120 DAA): 98.0%
Frequency 1/1 (0%) (Table 2, 120 DAA): 0.0%
Frequency 2/1 (15%) (Table 2, 120 DAA): 0.0%
Frequency 3/1 (30%) (Table 2, 120 DAA): 0.0%
Frequency 4/1 (50%) (Table 2, 120 DAA): 0.0%
Frequency 4/2 (80%) (Table 2, 120 DAA): 2.5%
Frequency 4/3 (90%) (Table 2, 120 DAA): 15.0%
Frequency 4/4 (100%) (Table 2, 120 DAA): 82.5%
% Referring to Scale (Table 3, 90 DAA): 0.0%
Frequency 1/1 (0%) (Table 3, 90 DAA): 100.0%
Frequency 2/1 (15%) (Table 3, 90 DAA): 0.0%
Frequency 3/1 (30%) (Table 3, 90 DAA): 0.0%
Frequency 4/1 (50%) (Table 3, 90 DAA): 0.0%
Frequency 4/2 (80%) (Table 3, 90 DAA): 0.0%
Frequency 4/3 (90%) (Table 3, 90 DAA): 0.0%
Frequency 4/4 (100%) (Table 3, 90 DAA): 0.0%
% Referring to Scale (Table 3, 120 DAA): 1.5%
Frequency 1/1 (0%) (Table 3, 120 DAA): 90.0%
Frequency 2/1 (15%) (Table 3, 120 DAA): 10.0%
Frequency 3/1 (30%) (Table 3, 120 DAA): 0.0%
Frequency 4/1 (50%) (Table 3, 120 DAA): 0.0%
Frequency 4/2 (80%) (Table 3, 120 DAA): 0.0%
Frequency 4/3 (90%) (Table 3, 120 DAA): 0.0%
Frequency 4/4 (100%) (Table 3, 120 DAA): 0.0%
% Referring to Scale (Table 3, 150 DAA): 0.0%
Frequency 1/1 (0%) (Table 3, 150 DAA): 100.0%
Frequency 2/1 (15%) (Table 3, 150 DAA): 0.0%
Frequency 3/1 (30%) (Table 3, 150 DAA): 0.0%
Frequency 4/1 (50%) (Table 3, 150 DAA): 0.0%
Frequency 4/2 (80%) (Table 3, 150 DAA): 0.0%
Frequency 4/3 (90%) (Table 3, 150 DAA): 0.0%
Frequency 4/4 (100%) (Table 3, 150 DAA): 0.0%
% Referring to Scale (Table 4, 90 DAA): 4.9%
Frequency 1/1 (0%) (Table 4, 90 DAA): 67.5%
Frequency 2/1 (15%) (Table 4, 90 DAA): 32.5%
Frequency 3/1 (30%) (Table 4, 90 DAA): 0.0%
Frequency 4/1 (50%) (Table 4, 90 DAA): 0.0%
Frequency 4/2 (80%) (Table 4, 90 DAA): 0.0%
Frequency 4/3 (90%) (Table 4, 90 DAA): 0.0%
Frequency 4/4 (100%) (Table 4, 90 DAA): 0.0%
